Source: patent US8541670B2, “Compositions and methods for inhibiting tumor cell growth” (priority 2007, dated 2013)
Where no end group is shown, it is not given here.

Tests used:
AKT [1] = assay: AKT activity in cultured neurons treated with PKA inhibitor or activator; type: cell-based
Protocol: To evaluate the significance of the AKT-PKAc interaction, kinase inhibitors were employed. […] Thus, cultured neurons were treated with the selective PKA inhibitor, H-89, and the potent PKA activator, forskolin, and AKT activity was analyzed.

N2a cells [2] = assay: Trypan blue staining, live and dead cell count; type: cell-based
Text: Therefore, in addition to capturing live images, cells were stained with trypan blue at different time intervals following treatment with ZaTa and counted by a light microscope using a hemocytometer.

AKT [3] = biological target: T1, AKT (Homo sapiens, UniProt P31749); assay: Screen of PKAc peptide library for effect on catalytic activity of AKT; type: biochemical; conditions: single peptide
T1 construct: purchased Upstate Biotechnology
Text: Unlike PKAc and protein kinase C (PKC) for which potent inhibitor peptides are readily available and widely used, inhibitors of AKT are generally lacking (Brazil, et al. (2004) supra). […] Moreover, optimal substrate motifs for AKT have been modified to design AKT inhibitors (Obata, et al. (2000) J. Biol. Chem. 275:36108-36115). Because the full-length PKAc protein inhibited the catalytic activity of AKT, a peptide library based on the human (GENBANK Accession No. NP_002721; SEQ ID NO:1) and bovine (GENBANK Accession No. CAA47627; SEQ ID NO:2) PKAc protein sequences was designed and synthesized. This library contained 96 overlapping peptides (Table 1), covering the full-length protein sequence of human and bovine PKAc from the N- to C-terminus. The library was extensively screened to identify fragments of PKAc that mediated the inhibitory effect of PKAc toward AKT.
These peptides included peptide 49 (SEQ ID NO:56), 53 (SEQ ID NO:60), 62 (SEQ ID NO:69), 63 (SEQ ID NO:70) and 64 (SEQ ID NO:71). Combinations of consecutive overlapping peptide fragments were also assayed for an effect on the catalytic activity of AKT. A significant inhibitory effect was also observed when peptides 25 through 36 were combined (i.e., SEQ ID NOs:32-43), peptides 37 through 48 were combined (i.e., SEQ ID NOs:44-55), peptides 49 through 60 were combined (i.e., SEQ ID NOs:56-67), and peptides 61 through 72 were combined (i.e., SEQ ID NOs:68-79).

AKT1 = biological target: T2, AKT1 (Homo sapiens, UniProt P31749); assay: AKT1 radioactive in vitro kinase assay (32P incorporation into Ser-21 GSK-3 substrate peptide); type: biochemical; conditions: compared with ZaTa
T2 construct: purchased Upstate Biotechnology
Protocol: AKT1 catalytic activity was determined by measuring the incorporation of −^32P into Ser-21 glycogen synthase kinase 3[…] (GSK-3[…]) substrate peptide. Histogram bars represent the number of −^32P counts per minute (CPM). Reactions were carried out in the presence of different concentrations of the ZaTa peptide (SEQ ID NO:60), as well as a control peptide (SEQ ID NO:59) which shares 11 out of 17 amino acids in common with the N-terminus of the ZaTa peptide.
Of particular interest with regard to inhibitory activity toward AKT was peptide […](SEQ ID NO:60) which flanked the Thr-197 phosphorylation site of PKAc. […] Furthermore, the inhibitory effect of ZaTa peptide was compared with an adjacent peptide ([…] SEQ ID NO:59), a peptide that overlaps with the 11 N-terminal amino acid residues of the ZaTa peptide and carries the Thr-197 phosphorylation site. In this assay, the level of incorporation of −^32 P into Ser-21 GSK-3[…] substrate peptide was used as the measure of AKT1 in vitro catalytic activity.
For non-radioactive kinase assays, typically 25 ng of active AKT1 or PKAc (Upstate Biotechnology) was used in a kinase assay reaction buffer (20 mM MOPS, pH 7.2, 25 mM […]-glycerophosphate, 5 mM EGTA, 1 mM Na3VO4, 1 mM dithiothreitol, 75 mM MgCl2, and 0.5 mM ATP) in the presence of either 1 μL of Ser-9 GSK-3 GST fusion protein (Cell Signaling), or recombinant DARPP-32 (10 μg). For the radioactive kinase assays, typically 25 ng of kinase was added to the kinase assays reaction buffer (20 mM MOPS, pH 7.2, 25 mM […]-glycerophosphate, 5 mM EGTA, 1 mM Na3VO4, 1 mM dithiothreitol) containing 30 μM of dephosphorylated Ser-21 GSK-3 substrate peptide (Upstate Biotechnology) in the presence of different concentrations of inhibitor. Reactions were initiated by adding [−^32P] ATP (10 μCi/reaction) which was diluted in the reaction buffer, plus 500 μM cold ATP and 75 mM MgCl2. Kinase reactions were incubated 30° C. for 10-20 minutes. A 5 μL aliquot of the reaction was transferred to phosphocellulose paper, washed for 30 minutes with dH2O, and CPM of samples read in scintillation counter.

olfactory bulb cells = assay: In vivo TUNEL in olfactory bulb after repeated intranasal delivery; parameters: species or system C57BL/6 mice; conditions: repeated intranasal treatment for three days
Text: To confirm the apoptotic inducing effect of ZaTa in vivo, ZaTa was delivered to the mouse brain via the nasal cavity, a minimally invasive procedure compared to the stereotactic surgery. Intranasal delivery of compounds into the brain is an efficient and effective way for local delivery of compounds, without the need for passing the blood brain barriers, the major obstacle for studying the effect of different inhibitors/activators in CNS (Vyas, et al. (2005) Curr. Drug Deliv. 2:165-175; Hrafnkelsdottir, et al. (2005) Biol. Pharm. Bull. 28:1038-1042). […] This was visualized by double labeling of the brain sections with fluorescent TUNEL and a nuclear marker.
Depending on the intended use, a pharmaceutical composition of the invention can be administered by any suitable means, including parenteral injection (such as intraperitoneal, subcutaneous, intratumoral or intramuscular injection), orally or by topical application (e.g., transdermal or via a mucosal surface). By pharmaceutically acceptable formulation is meant, a composition or formulation that allows for the effective distribution of the nucleic acid molecules of the instant invention in the physical location most suitable for their desired activity. […]

N2a cells [4] = assay: MTT cell proliferation assay; type: cell-based; conditions: 10 μM, 48-hour treatment (FIG. 3, series 1)
Protocol: In histogram series 2, treatments were removed after 24 hours and cells were incubated for another 24 hours without treatment. […] Mitochondrial activity (reflecting cellular growth and viability) in the presence of ZaTa and ZaTa variants (ZaTa T10D, ZaTa T8D, ZaTa T14R, and ZaTa Y17T) was evaluated by measuring the optical density (“OD”) at 490 nm on a plate reader. ZaTa T10D refers to a ZaTa polypeptide variant in which the Threonine (T) at position 10 of SEQ ID NO: 60 is substituted by an Aspartic Acid (D). ZaTa T8D refers to a ZaTa polypeptide variant in which the Threonine (T) at position 8 of SEQ ID NO: 60 is substituted by an Aspartic Acid (D). ZaTa T14R refers to a ZaTa polypeptide variant in which the Threonine (T) at position 14 of SEQ ID NO: 60 is substituted by an Arginine (R). ZaTa Y17T refers to a ZaTa polypeptide variant in which the Tyrosine (Y) at position 17 of SEQ ID NO: 60 is substituted by an Threonine (T).
AKT affects a network that positively regulates G1/S cell cycle progression through several mechanisms that involve the expression and subcellular localization of the CDK inhibitor p27^Kip1 (Blain and Massague (2002) Nat. Med. 8:1076-1078; Liang, et al. (2002) supra; Shin, et al. (2002) supra; Viglietto, et al. (2002) supra). Based on these studies, the effect of ZaTa peptide on cell proliferation was assessed. […] Capturing live images of cultured N2a cells in the presence of different concentrations of the ZaTa peptide confirmed an obvious reduction in the number of dividing cells.
Based on the importance of the C-terminal arm of ZaTa for its inhibitory action on AKT, it was determined whether the free hydroxyl groups on residues Thr-8, Thr-10 (equivalent to Thr-197 in full-length PKAc), Thr-14 and Tyr-17 were important for the biological activity of this peptide. Mutants of ZaTa peptide were synthesized by replacing Thr-8 or Thr-10 residues with Asp (ZaTa^T8D and ZaTa^T10D, respectively) as an amino acid with a negatively charged side chain. Mutants of ZaTa with the hydrophilic positively charged amino acid Arg at either position Thr-14 or Tyr-17 (ZaTa^T14R and ZaTa^Y17R, respectively) were also synthesized. […] The inhibitory effect of ZaTa peptide on cell proliferation was reversible, to a large extent, after the removal of ZaTa treatment (FIG. 3, histogram series 2).
Cells (5×10^3) were incubated in 96-well plates in the presence of different concentrations of the ZaTa peptide, control peptide or DMSO as vehicle. Media was removed at different time intervals and replaced with media containing MTT (5 mg/mL), and incubated for one hour at 37° C. […] The activity of the mitochondria, reflecting cellular growth and viability, was evaluated by measuring the optical density at 490 nm on a plate reader.

[5] = counted at time points from 12 to 72 hours

T1 sequence (P31749 whole entry): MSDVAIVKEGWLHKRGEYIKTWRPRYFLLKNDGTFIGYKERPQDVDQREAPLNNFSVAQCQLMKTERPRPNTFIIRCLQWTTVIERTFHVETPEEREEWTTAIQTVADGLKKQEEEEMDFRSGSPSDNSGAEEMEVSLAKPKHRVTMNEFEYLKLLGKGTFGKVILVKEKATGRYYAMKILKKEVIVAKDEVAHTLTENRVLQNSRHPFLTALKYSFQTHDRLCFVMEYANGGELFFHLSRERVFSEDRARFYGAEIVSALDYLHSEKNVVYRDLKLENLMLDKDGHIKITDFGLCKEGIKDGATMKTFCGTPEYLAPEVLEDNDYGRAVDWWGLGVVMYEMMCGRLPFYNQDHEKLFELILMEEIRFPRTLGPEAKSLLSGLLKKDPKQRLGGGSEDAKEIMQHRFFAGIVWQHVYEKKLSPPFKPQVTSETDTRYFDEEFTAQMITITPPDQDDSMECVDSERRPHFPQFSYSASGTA
T2 sequence (P31749 whole entry): as above

## O=S(=O)(NCCNC/C=C/c1ccc(Br)cc1)c1cccc2cnccc12 [Peptide H-89]
AKT [1]
  activity of AKT, phosphorylation level at Thr-308 and Ser-473: dose-dependent increase

## AKRVKGRDWTLCGTPEY [ZaTa^T8D]
N2a cells [2]; [5]
  increase in the number of dead cells: not seen

## AKRVKGRTWDLCGTPEY [ZaTa^T10D]
N2a cells [2]; [5]
  increase in the number of dead cells: not seen

## AKRVKGRTWTLCGRPEY [ZaTa^T14R]
N2a cells [2]; only after 72 hours
  increase in the number of dead cells: significant increase in the number of dead cells

## D-Q-Q-G-Y-I-Q-V-T-D-F-G-F-A-K (DQQGYIQVTDFGFAK; Peptide_SEQ ID NO:56) [Peptide 49]
AKT [3]
  inhibitory effect toward AKT, individual library peptides: significant inhibitory effects

## G-V-L-I-Y-E-M-A-A-G-Y-P-P-F-F (GVLIYEMAAGYPPFF; Peptide_SEQ ID NO:70) [Peptide 63]
AKT [3]
  inhibitory effect toward AKT, individual library peptides: significant inhibitory effects

## GFAKRVKGRTWTL [control peptide, peptide overlapping the 11 N-terminal residues of ZaTa, reference compound]
AKT1
  inhibition of AKT1 catalytic activity: not able to inhibit AKT1
Olfactory bulb cells
  number of apoptotic cells in olfactory bulb: no change in the number of apoptotic cells

## W-A-L-G-V-L-I-Y-E-M-A-A-G-Y (WALGVLIYEMAAGY; Peptide_SEQ ID NO:69) [Peptide 62]
AKT [3]
  inhibitory effect toward AKT, individual library peptides: significant inhibitory effects

## Y-E-M-A-A-G-Y-P-P-F-F-A (YEMAAGYPPFFA; Peptide_SEQ ID NO:71) [Peptide 64]
AKT [3]
  inhibitory effect toward AKT, individual library peptides: significant inhibitory effects

## ZaTa^Y17R: ZaTa mutant with Arg at position Tyr-17 (AKRVKGRTWTLCGTPER; Peptide_SEQ ID NO:60)
N2a cells [2]; only after 72 hours
  increase in the number of dead cells: significant increase in the number of dead cells
N2a cells [4]
  effect of mutation on inhibition of cell proliferation relative to ZaTa: considerably augmented ZaTa activity
